The record followed here is patent US11478451B1, “Macrocyclic chlorine substituted indole derivatives” (Bayer Aktiengesellschaft, priority 2017, dated 2022).

Counter-ions that a name gives are not always drawn. Like-named read-outs stand apart in the source and are kept apart here.

As a reminder, the EC50 is the concentration at which the effect is half-maximal. Read a high EC50 as a need for much substance.

For data set [1], the system named is HMC-1-8 cells. Nature of the data set: Antiproliferation assay (CellTiter-Glo, 72 h), HMC-1-8. As to conditions: IC50, median, HMC-1-8, 72 h, read-out: Antiproli HMC-1-8 [M] median. The class given is cell-based. The protocol:
Assessment of the Anti-Proliferative Effect of Compounds in Different Cell Lines
The impact of compounds on the proliferation of different cell lines was assessed using the CellTiter-Glo® Luminescent Cell Viability reagent from Promega (G7573).
In parallel, cells were plated in a reference (day 0) plate for time zero determination.
Rim wells were excluded. The cells were incubated for 72 h hours in a humidified incubator at 37° C. The day 0 plate was measured by adding 30 μL/well of CTG solution (CellTiter-Glo® Luminescent Cell Viability reagent, Promega G7573) to time zero wells in the reference plate followed by a 10 minutes incubation and luminescence reading at 0.1 ms. using the PHERAstar FS microplate reader (BMG Labtech).
After 72 h incubation, the treated plates were measured in the same way as the day 0 plate mentioned above.

The test system of data set [2] is SUDHL5 cells. Nature of the data set: Antiproliferation assay (CellTiter-Glo, 72 h), SUDHL5. The class given is cell-based. As to conditions: IC50, median, SUDHL5, 72 h, read-out: Antiproli SUDHL5 [M] (median). The method, boiled down: (§1)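 Luminescent ATP-based viability (CellTiter-Glo) measured after 72 h of compound treatment at 37 °C. A day 0 plate recorded at time zero served as the starting reference for proliferation.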
For orientation: ATP-based viability assays read luminescence as a measure of living cells.

The subject of data set [3] is AMO-1 cells. Nature of the data set: Antiproliferation assay (CellTiter-Glo, 72 h), AMO-1. As to conditions: IC50, median, AMO-1, 72 h, read-out: Antiproli AMO-1 [M] median. The class given is cell-based. In short, it runs like this:
as §1

Data set [4] relates to SUDHL10 cells. Nature of the data set: Induction of cytotoxicity (CellTiter-Glo, 5 h), SUDHL10. As to conditions: SUDHL10, 5 h.
Data set [5] concerns SUDHL10 cells. Nature of the data set: Induction of caspase-3/7 activity (Caspase-Glo 3/7), SUDHL10. The data set is classed as cell-based. The note with it: EC50, median, SUDHL10, 3 h treatment. In short, it runs like this: (§2)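 Steps: seed the diffuse large B-cell lymphoma cells, leaving rim wells unused; add compounds; incubate 3 h at 37 °C; add Caspase-Glo 3/7 reagent; read; subtract medium-only background.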

Data set [6] has as its system SUDHL5 cells. Nature of the data set: Induction of caspase-3/7 activity (Caspase-Glo 3/7), SUDHL5. The data set is classed as cell-based. The note with it: EC50, median, SUDHL5, 3 h treatment. The method, boiled down:
as §2

Data set [7] has as its system SUDHL5 cells. Nature of the data set: Induction of cytotoxicity (CellTiter-Glo, 5 h), SUDHL5. As to conditions: SUDHL5, 5 h.
The mark [8] stands for this setting: Homo sapiens, SU-DHL10, 5 h, read-out: Cytotox SUDHL10 [M] (median), IC50, median.
Setting [9] is: read-out: Cytotox SUDHL5 [M] (median), IC50, median.
Setting [10] is: read-out: Cytotox SUDHL10 [M] (median), IC50, median.
[11] abbreviates: Homo sapiens, SU-DHL-5, 5 h, read-out: Cytotox SUDHL5 [M] (median), IC50, median.

For `Cc1c2c(nn1C)COCCC(F)(F)Cn1c(C(=O)O)c(CCCOc3cccc4ccccc34)c3ccc(Cl)c-2c31` (racemic) [Example 68, (rac)-4-chloro-11,11-difluoro-2,3-dimethyl-7-[3-(1-naphthyloxy)propyl]-2,10,11,12,13,15-hexahydropyrazolo[4′,3′:9,10][1,6]oxazacycloundecino[8,7,6-hi]indole-8-carboxylic acid], the IC50 in data set [1] (72 h) was 7.9e-06 M; in data set [2] (Homo sapiens, SU-DHL-5, 72 h), 2.6e-06 M; in data set [3] (Homo sapiens, AMO1, 72 h) it was 2.6e-06 M; in data set [4] (setting [8]), 3.3e-06 M. Further, the EC50 is 3100 nM in data set [5] (Homo sapiens, SU-DHL10, 3 h) and 1400 nM in data set [6] (Homo sapiens, SU-DHL-5, 3 h).

For the compound `CCc1c2c(nn1C)COCC1CC1Cn1c(C(=O)O)c(CCCOc3cccc4cc(F)ccc34)c3ccc(Cl)c-2c31` (single isomer, unassigned; (+)) [Example 104, (+)-3-chloro-4-ethyl-14-{3-[(6-fluoronaphthalen-1-yl)oxy]propyl}-5-methyl-5,7,9a,10,10a,11-hexahydro-9H-cyclopropa[3,4]pyrazolo[4′,3′:9,10][1,6]oxazacycloundecino[8,7,6-hi]indole-13-carboxylic acid N-ethylethanamine salt], the IC50 is 8.5e-06 M in data set [1]; 9.7e-07 M in data set [7] (setting [9]); 1e-06 M in data set [2] (Homo sapiens, SU-DHL-5, 72 h); 2.4e-06 M in data set [3]. Moreover, the results for the EC50 in data set [5] and in data set [6] were 1500 nM and 810 nM, respectively.

On to `CCc1c2c(nn1C)CN(CC(F)F)CCCCn1c(C(=O)O)c(CCCOc3cccc4cc(F)ccc34)c3ccc(Cl)c-2c31` (racemic) [Example 62, (rac)-4-chloro-14-(2,2-difluoroethyl)-3-ethyl-7-{3-[(6-fluoronaphthalen-1-yl)oxy]propyl}-2-methyl-10,11,12,13,14,15-hexahydro-2H-pyrazolo[3′,4′:8,9][1,6]diazacycloundecino[10,11,1-hi]indole-8-carboxylic acid], for which the IC50 was 2.2e-06 M in data set [1] (72 h); 3.1e-07 M in data set [7] (setting [9]); 3.4e-07 M in data set [2]; 2.2e-07 M in data set [3]; 3.6e-07 M in data set [4] (setting [10]). In data set [5], this compound showed a concentration giving a half-maximal response (EC50) of 380 nM.

As to `Cc1c2c(nn1C)COCC1CCC1Cn1c(C(=O)O)c(CCCOc3cccc4ccccc34)c3ccc(Cl)c-2c31` (single isomer, unassigned; stereoisomer 2) [Example 64], the IC50 in data set [1] (72 h) was 5.6e-06 M; in data set [7] (setting [11]) it was 5.4e-07 M; in data set [2] (Homo sapiens, SU-DHL-5, 72 h), 5e-07 M; in data set [3] (Homo sapiens, AMO1, 72 h), 1.6e-06 M. The compound also displayed an EC50 in data set [6] of 330 nM.

As to `CCc1c2c(nn1C)CN(C)CCCn1c(C(=O)O)c(CCCOc3cccc4cc(F)ccc34)c3ccc(Cl)c-2c31` (racemic) [Example 112, (rac)-12-chloro-11-ethyl-1-{3-[(6-fluoronaphthalen-1-yl)oxy]propyl}-7,10-dimethyl-4,5,6,7,8,10-hexahydropyrazolo[3′,4′:7,8][1,5]diazecino[9,10,1-hi]indole-2-carboxylic acid], the IC50 worked out at 7.1e-06 M in data set [1] (72 h); 6.1e-07 M in data set [7] (setting [9]); 1.5e-06 M in data set [2] (Homo sapiens, SU-DHL-5, 72 h); 9.1e-07 M in data set [3]. Moreover, the EC50 in data set [5] was found to be 860 nM; in data set [6], 600 nM.

Consider `CCc1c2c(nn1C)COCC1(CCn3c(C(=O)O)c(CCCOc4cccc5cc(F)ccc45)c4ccc(Cl)c-2c43)CC1` (racemic) [Example 109, (rac)-4′-chloro-3′-ethyl-7′-{3-[(6-fluoronaphthalen-1-yl)oxy]propyl}-2′-methyl-2′,10′,11′,15′-tetrahydro-13′H-spiro[cyclopropane-1,12′-pyrazolo[4′,3′:9,10][1,6]oxazacycloundecino[8,7,6-hi]indole]-8′-carboxylic acid], for which the IC50 in data set [1] (72 h) came out at 4.3e-06 M; in data set [7] (setting [11]), 5.9e-07 M; in data set [2] (Homo sapiens, SU-DHL-5, 72 h), 5.5e-07 M; in data set [4] (setting [8]), 2.8e-07 M. Further, the EC50 in data set [5] (Homo sapiens, SU-DHL10, 3 h) was determined as 290 nM; in data set [6] (Homo sapiens, SU-DHL-5, 3 h), 440 nM.

`CCc1c2c(nn1C)CN(CC(F)(F)F)CCCCn1c(C(=O)O)c(CCCOc3cccc4cc(F)ccc34)c3ccc(Cl)c-2c31` (racemic) [Example 61, (rac) 4-chloro-3-ethyl-7-{3-[(6-fluoronaphthalen-1-yl)oxy]propyl}-2-methyl-14-(2,2,2-trifluo-roethyl)-10,11,12,13,14,15-hexahydro-2H-pyrazolo[3′,4′:8,9][1,6]diazacycloundecino[10,11,1-hi]indole-8-carboxylic acid]: the IC50 in data set [1] (72 h) worked out at 1.7e-06 M; in data set [7] (setting [11]), 3.4e-07 M; in data set [2] (Homo sapiens, SU-DHL-5, 72 h), 2.5e-07 M; in data set [3] (Homo sapiens, AMO1, 72 h) it was 6.8e-07 M; in data set [4] (setting [8]), 5.3e-07 M. Besides, the EC50 in data set [5] (Homo sapiens, SU-DHL10, 3 h) was 440 nM.

Regarding `CCc1c2c(nn1C)COCC(F)(F)CCn1c(C(=O)O)c(CCCOc3cccc4cc(F)ccc34)c3ccc(Cl)c-2c31` (single isomer, unassigned) [Example 86, (+)-4-chloro-3-ethyl-12,12-difluoro-7-{3-[(6-fluoronaphthalen-1-yl)oxy]propyl}-2-methyl-2,10,11,12,13,15-hexahydropyrazolo[4′,3′:9,10][1,6]oxazacycloundecino[8,7,6-hi]indole-8-carboxylic acid], the IC50 in data set [1] (listed as 086) came to 6.4e-06 M; in data set [7] (read-out: Cytotox SUDHL5 [M] (median), IC50, median, listed as 086) it was 6.3e-07 M; in data set [2] (listed as 086) it was 9.3e-07 M; in data set [4] (read-out: Cytotox SUDHL10 [M] (median), IC50, median, listed as 086), 9.7e-07 M. In addition, the results for the EC50 in data set [5] (listed as 086) and in data set [6] (listed as 086) were 620 nM and 470 nM, respectively.

As to `CCc1c2c(nn1C)COCC1(CCn3c(C(=O)O)c(CCCOc4cccc5cc(F)ccc45)c4ccc(Cl)c-2c43)CC1` [Example 110, (−)-4′-chloro-3′-ethyl-7′-{3-[(6-fluoronaphthalen-1-yl)oxy]propyl}-2′-methyl-2′,10′,11′,15′-tetrahydro-13′H-spiro[cyclopropane-1,12′-pyrazolo[4′,3′:9,10][1,6]oxazacycloundecino[8,7,6-hi]indole]-8′-carboxylic acid-N-ethylethanamine salt], the IC50 in data set [1] (72 h) turned out to be 1.4e-06 M; in data set [2] (Homo sapiens, SU-DHL-5, 72 h) it was 2.1e-07 M; in data set [3], 3.5e-07 M; in data set [4] (setting [10]), 2.8e-07 M. Moreover, the values for the EC50 in data set [5] and in data set [6] were 160 nM and 120 nM, respectively.

For the compound `CCc1c2c(nn1C)COCC1CC1Cn1c(C(=O)O)c(CCCOc3cccc4cc(F)ccc34)c3ccc(Cl)c-2c31` (racemic) [Example 103, (rac)-3-chloro-4-ethyl-14-{3-[(6-fluoronaphthalen-1-yl)oxy]propyl}-5-methyl-5,7,9a,10,10a,11-hexahydro-9H-cyclopropa[3,4]pyrazolo[4′,3′:9,10][1,6]oxazacycloundecino[8,7,6-hi]indole-13-carboxylic acid], the IC50 worked out at 7.1e-06 M in data set [1] (72 h); 5.7e-07 M in data set [7] (setting [9]); 5.5e-07 M in data set [2]; 8.2e-07 M in data set [3]; 7e-07 M in data set [4] (setting [10]). The same compound gave an EC50 in data set [5] of 500 nM.

Turning to `CCc1c2c(nn1C)CN(CCC1CCOCC1)CCCCn1c(C(=O)O)c(CCCOc3cccc4cc(F)ccc34)c3ccc(Cl)c-2c31` (racemic) [Example 135, (rac)-4-chloro-3-ethyl-7-{3-[(6-fluoronaphthalen-1-yl)oxy]propyl}-2-methyl-14-[2-(oxan-4-yl)ethyl]-10,11,12,13,14,15-hexahydro-2H-pyrazolo[3′,4′:8,9][1,6]diazacycloundecino[10,11,1-hi]indole-8-carboxylic acid], the IC50 is 8.7e-07 M in data set [1] (72 h); 1.2e-07 M in data set [2] (Homo sapiens, SU-DHL-5, 72 h); 1.2e-07 M in data set [3] (Homo sapiens, AMO1, 72 h); 1.5e-07 M in data set [4] (setting [8]). In addition, the EC50 in data set [5] (Homo sapiens, SU-DHL10, 3 h) was found to be 140 nM.
